Literature values in US20160253451A1, “METHOD OF USING A WATER-BASED PHARMACOPHORE” (KOREA UNIVERSITY, priority 2013, published 2016).

Molecular target: streptavidin (Streptomyces avidinii, UniProt P22629)
Conditions: streptavidin-biotin complex

Sequence of streptavidin (P22629 25-183, species assumed): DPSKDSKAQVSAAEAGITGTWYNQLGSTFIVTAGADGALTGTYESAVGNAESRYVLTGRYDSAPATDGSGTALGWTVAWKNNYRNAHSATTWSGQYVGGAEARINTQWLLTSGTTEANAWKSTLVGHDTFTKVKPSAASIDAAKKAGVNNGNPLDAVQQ

O=C(O)CCCC[C@@H]1SC[C@@H]2NC(=O)N[C@@H]21 [biotin]
actual affinity: -18.3 kcal/mol
